Here are results for two compounds from patent publication US20250115615A1, “Solid Forms of 3-(5-Fluorobenzofuran-3-yl)-4-(5-methyl-5H-[1,3]dioxolo[4,5-f]indol-7-yl)pyrrole-2,5-dione” (Actuate Therapeutics Inc., priority 2017, published 2025).

Holding throughout (type): physicochemical
The nature of data set [1]: Solubility in sesame oil (visual estimate). The note with it: for visual result: 24 hours, room temperature; for Estimated solubility: sesame oil, stirred 24 hours at room temperature, visual examination. The procedure:
The solubility of 9-ING-41 in sesame oil cannot be measured by HPLC. The solubility was estimated by adding weighed portions of Form I (or Form II) into sesame oil. The samples were stirred for 24 hours at room temperature and the vials were visually examined to ensure dissolution.

The nature of data set [2]: Mechanical and pressure effects on crystal form (XRPD). As for the experimental part: 10.0 mg of Form II was weighed into mortar and ground for 5 min. The remaining solid was collected and analyzed by XRPD. […] 4.50 mg of Form II was compressed into tablet. The tablet was then ground into powder and analyzed by XRPD.
The nature of data set [3]: Solubility study, 24 hour (HPLC of filtrate, XRPD of remaining solids). The note with it: for solubility at 24 h: thermodynamic from solid. The procedure:
9-ING-41, either Form I or Form II, was added to 1 mL of each of 10 different solvents in a vial to make a suspension. The samples were shaken at 2000 rpm in a shaker at room temperature for 24 hours. Mixtures were visually examined to ensure saturation. After 24 hours, 1 mL of suspension was filtered through a 0.45 um nylon micro-filtration membrane into another clear glass vial, respectively. The filtrate was analyzed by HPLC and the remaining solids were analyzed using XRPD.

Data set [4] is described as follows: Solubility study, 1 hour (Form II added to Form I-saturated filtrates). The settings on record: for Crystal form of remaining solids (XRPD): 1 hour; for solubility at 1 h / solubility at 24 h: thermodynamic from solid; for solubility at 1 h: excess Form II added to Form I-saturated filtrate, shaken 1 hour; for solubility at 24 h: Form I suspension shaken 24 hours, room temperature. As for the experimental part:
Step 1: A sufficient amount of Form I was added to 1 mL solvent (EtOH, Labrasol, Benzyl Benzoate, Benzyl Alcohol, PEG400: Tween80: EtOH (75:8:17) and PEG300:BzOH: Water (65:10:25)) to make a suspension. The samples were shaken at 2000 rpm in a shaker at room temperature for 24 hours.
Step 2: The vials were visually examined to ensure saturation. 1 mL of suspension was filtered at 24 hours through a 0.45 μm nylon micro-filtration membrane into another clean clear glass vial. The filtrate was analyzed by HPLC.
Step 3: Excess Form II was added to the 6 residual filtrates from Step 2 to make a suspension, respectively. The samples were shaken at 2000 rpm in a shaker for 1 hour. The suspensions were filtered after 1 hour through a 0.45 μm nylon micro-filtration membrane into another clean glass vial. The filtrate was analyzed by HPLC and the remaining solids were analyzed using XRPD.

Where [5] appears, read: organic solvent or mixture, PEG400:Tween80:EtOH (75:8:17).

Structures are written as SMILES. Values after ≈ are worked out from the molar mass of the structure shown. Where only a bound is given, the exact number is not on record here.

With `Cn1cc(C2=C(c3coc4ccc(F)cc34)C(=O)NC2=O)c2cc3c(cc21)OCO3` [Form II, 3-(5-fluorobenzofuran-3-yl)-4-(5-methyl-5H-[1,3]dioxolo[4,5-f]indol-7-yl) pyrrole-2,5-dione], the values for the visual result in data set [1] (0.90 mg in 1214.50 mg sesame oil) and in data set [1] (3.18 mg in 2638.01 mg sesame oil) were “dissolution” and “Incomplete”, respectively. For the same compound, the Estimated solubility in data set [1] was 0.741 to 1.21 µg/mg. The “Crystal form after compression (XRPD)” value in data set [2] (4.50 mg compressed into tablet, then ground into powder) was “no effect on the crystalline form”. Also, the “Crystal form after grinding (XRPD)” value in data set [2] (10.0 mg ground in mortar for 5 min) is reported as “remained Form II”. Moreover, the Solubility in data set [3] (Benzyl Alcohol, room temperature) is 30.553 mg/mL (≈ 75.6 mM); in data set [3] (Benzyl Benzoate, room temperature), 73.265 mg/mL (≈ 181 mM); in data set [3] (Dimethyl Acetamide, room temperature), more than 100 mg/mL; in data set [3] (EtOH, room temperature) it was 0.903 mg/mL (≈ 2.23 mM); in data set [3] (Labrasol, room temperature), 68.455 mg/mL (≈ 169 mM); in data set [3] (PEG300:BzOH:Water (65:10:25), room temperature), 9.410 mg/mL (≈ 23.3 mM). Also, the Solubility in data set [3] (PEG400, room temperature) is given as more than 100 mg/mL; in data set [3] (PEG400:Tween80:EtOH (75:8:17), room temperature), 90.418 mg/mL (≈ 224 mM); in data set [3] (Water, room temperature) it was “Not detected”. Also, the “Crystal form of remaining solids (XRPD)” value in data set [3] (ethanol experiment) is listed as “the remaining solids were a solvate”; in data set [3] (the other experiments (not water, sesame oil, ethanol)), “the solids appeared to be Form I”; in data set [3] (water and sesame oil experiments) it was “the remaining solids were Form II”; in data set [4] (EtOH and PEG300:BzOH:Water (65:10:25)) it was “did not change”; in data set [4] (Labrasol, Benzyl Benzoate, Benzyl Alcohol, PEG400:Tween80:EtOH (75:8:17)) it was “rapidly converts to Form I”. Also, the solubility at 1 h came out at 10.2 mg/mL (≈ 25.3 mM) in data set [4] (filtrate saturated with Form I, aqueous with cosolvent or surfactant or cyclodextrin, PEG300:BzOH:Water (65:10:25)); 87 mg/mL (≈ 215 mM) in data set [4] (filtrate saturated with Form I, oil or lipid, Labrasol); 39.9 mg/mL (≈ 98.6 mM) in data set [4] (filtrate saturated with Form I, organic solvent or mixture, Benzyl Alcohol); 71.8 mg/mL (≈ 178 mM) in data set [4] (filtrate saturated with Form I, organic solvent or mixture, Benzyl Benzoate); 2.55 mg/mL (≈ 6.3 mM) in data set [4] (filtrate saturated with Form I, organic solvent or mixture, EtOH); 106 mg/mL (≈ 262 mM) in data set [4] (setting [5]).
For the compound `Cn1cc(C2=C(c3coc4ccc(F)cc34)C(=O)NC2=O)c2cc3c(cc21)OCO3` [Form I], the visual result is “Incomplete” in data set [1] (1.00 mg in 3464.12 mg sesame oil) and “dissolution” in data set [1] (1.00 mg in 5997.92 mg sesame oil). Also, in data set [1], the Estimated solubility is 0.167 to 0.289 µg/mg. Further, the solubility at 24 h in data set [3] (EtOH, organic solvent or mixture, room temperature) was found to be 1.27 mg/mL (≈ 3.15 mM); in data set [3] (Labrasol, oil or lipid, room temperature) it was 60.5 mg/mL (≈ 150 mM); in data set [3] (PEG300:BzOH:Water (65:10:25), aqueous with cosolvent or surfactant or cyclodextrin, PEG300:BzOH:Water (65:10:25), room temperature), 5.09 mg/mL (≈ 12.6 mM); in data set [3] (PEG400, organic solvent or mixture, PEG400, room temperature), 96.5 mg/mL (≈ 239 mM); in data set [3] (PEG400:Tween80:EtOH (75:8:17), organic solvent or mixture, PEG400:Tween80:EtOH (75:8:17), room temperature), 72.8 mg/mL (≈ 180 mM); in data set [3] (benzyl alcohol, organic solvent or mixture, room temperature), 24 mg/mL (≈ 59.5 mM). Besides, the solubility at 24 h in data set [3] (benzyl benzoate, organic solvent or mixture, room temperature) is 53 mg/mL (≈ 131 mM); in data set [3] (dimethyl acetamide, organic solvent or mixture, room temperature), more than 100 mg/mL; in data set [4] (aqueous with cosolvent or surfactant or cyclodextrin, PEG300:BzOH:Water (65:10:25)) it was 4.96 mg/mL (≈ 12.3 mM); in data set [4] (oil or lipid, Labrasol), 61.4 mg/mL (≈ 152 mM); in data set [4] (organic solvent or mixture, Benzyl Alcohol) it was 22.3 mg/mL (≈ 55.2 mM); in data set [4] (organic solvent or mixture, Benzyl Benzoate) it was 48.3 mg/mL (≈ 119 mM). The solubility at 24 h in data set [4] (organic solvent or mixture, EtOH) came out at 1.26 mg/mL (≈ 3.11 mM); in data set [4] (setting [5]) it was 73.4 mg/mL (≈ 182 mM). The Solubility entry in data set [3] (Water, room temperature) was “Not detected”. Moreover, the “Crystal form of remaining solids (XRPD)” value in data set [3] (all experiments with Form I as starting material) is listed as “remained Form I”.

One may read the Solubility as the concentration that dissolves in the medium under given conditions. One may read the solubility as the concentration that dissolves in the medium under given conditions.
